The test system of this assay is DSS-induced IBD. The assay is described as follows: DSS-induced inflammatory bowel disease (acute colitis) in mice. Format: in vivo, C57BL/6 female mice. The protocol:
Glatiramer acetate (GA) and GA Depot administration: […] GA Depot was suspended in sterile water for injection (WFI) (B Braun, Melsumgen, Germany) and injected intramuscularly (IM) at 10 mg dose (doses of GA Depot are given according to amount of active ingredient, i.e. GA Depot 10 mg contains 10 mg GA) divided to two 5 mg doses on days 0 and 1 due to technical reasons (volume limitation). Animals: All animal studies were approved by local ethics committees. C57BL/6 female mice, 7-9 weeks old were randomized into control or treatment groups with similar mean weight Animals were given food and water ad libitum throughout the experiment. Cell culture: SVF was plated at a density of 2×10^6 cells per 75 cm^2. Cells were grown to 80% confluency, trypsinized and sub-cultured up to passage 3-4. Cells were then collected and analyzed by FACS for the markers: […] The cells were stored frozen in liquid nitrogen until use. For use, the cells were thawed and plated at a concentration of 50,000 cells/cm^2 and incubated overnight. Prior to cells intraperitoneal (IP) injection the cells were trypsinized, counted and prepared for injection at a concentration of 1×10^6 cell/100 ul PBS and kept in ice until use for a period no longer than 30 min. Inflammatory bowel disease (IBD) induction: A widely used IBD model in mice is the dextran sulfate sodium (DSS)-induced colitis. DSS administration in the mice drinking water leads to many of the events presumed to initiate and sustain human IBD (Boismenu and Chen (2000) J Leukoc Biol, 67:267-278). […] In brief, body weight, rectal bleeding (observation of bleeding signs on the anus or gross bleeding), stool consistency and survival were monitored daily. […] Fourteen (14) days following disease induction, mice were sacrificed and the large intestine was collected and evaluated for colon length and microscopic colonic damage. […] Statistical analysis: Each data set was analyzed using single-factor analysis of variance (ANOVA) followed by two-tailed, two-sample students' T test assuming unequal variances, n=10/group, +/-standard error.

On to “L-glutamic acid polymer with L-alanine, L-lysine and L-tyrosine, acetate (salt) [Copaxone®]”, for which the “animals showing bleeding (Hemoccult test)” value came to 50% (day 5) and 20% (day 10). Besides, under “mouse, in vivo”, the “effect on IBD manifestations (overall conclusion)” value was “almost no effect”.

For the origin of these results see US12161688B2, “Treatment of inflammatory bowel disease with long acting glatiramer and adipose-derived stem cells” (STEM CELL MEDICINE LTD., priority 2016, dated 2024).
